{"source": "patent US20080153756A1", "about": "“Novel Peptides and Methods for the Treatment of Inflammatory Disorders” (Auckland Uniservices Limited, priority 2005, published 2008)", "molecules": {"B1": {"name": "integrin α4β7 on mouse TK-1 T lymphoma cells (α4β7+ α4β1-) (receptor)", "chain 1": "YNLDPENALLYQGPSGTLFGYSVVLHSHGSKRWLIVGAPTASWLSNASVVNPGAIYRCGIRKNPNQTCEQLQSGSPSGEPCGKTCLEERDNQWLGVTLSRQPGENGSIVTCGHRWKNIFYMKSDNKLPTGICYVMPSDLRTELSKRMAPCYKDYTRKFGENFASCQAGISSFYTQDLIVMGAPGSSYWTGTVFVYNITTNQYKAFVDRQNQVKFGSYLGYSVGAGHFRSPHTTEVVGGAPQHEQIGKAYIFSIDENELNIVYEMKGKKLGSYFGASVCAVDLNADGFSDLLVGAPMQSTIREEGRVFVYINSGMGAVMVEMERVLVGSDKYAARFGESIANLGDIDNDGFEDIAIGAPQEDDLRGAVYIYNGRVDGISSTYSQRIEGQQISKSLRMFGQSISGQIDADNNGYVDVAVGAFQSDSAVLLRTRPVVIVEASLSHPESVNRTKFDCTENGLPSVCMHLTLCFSYKGKEVPGYIVLFYNVSLDVHRKAESPSRFYFFSNGTSDVITGSIRVSSSGEKCRTHQAFMRKDVRDILTPIHVEATYHLGHHVITKRNTEEFPPLQPILQQKKEKDVIRKMINFARFCAYENCSADLQVSAKVGFLKPYENKTYLAVGSMKTIMLNVSLFNAGDDAYETTLNVQLPTGLYFIKILDLEEKQINCEVTESSGIVKLACSLGYIYVDRLSRIDISFLLDVSSLSRAHEDLSISVHASCENEGELDQVRDNRVTLTIPLRYEVMLTVHGLVNPTSFVYGSSEENEPETCMAEKLNLTFHVINTGISMAPNVSVKIMVPNSFLPQDDKLFNVLDVQTTTGQCHFKHYGRECTFAQQKGIAGTLTDIVKFLSKTDKRLLYCMKADQHCLDFLCNFGKMESGKEASVHIQLEGRPSILEMDETSSLKFEIKATAFPEPHPKVIELNKDENVAHVFLEGLHHQRPKRHFTIIIITISLLLGLIVLLLISCVMWKAGFFKRQYKSILQEENRRDSWSYVNSKSNDD", "chain 2": "ELDTKITSSGEAAEWEDPDLSLQGSCQPVPSCQKCILSHPSCAWCKQLNFTASGEAEARRCARREELLARGCPAQELEEPRGRQEVLQDKPLSQGDRGEGATQLAPQRIRVTLRPGEPQKFRVRFLRAAGYPVDLYYLMDLSYSMKDDLERVRQLGHALLVRLQEVTHSVRIGFGSFVDKTVLPFVSTVPSKLHHPCPSRLERCQPPFSFHHVLSLTGDAQAFEREVGRQNVSGNLDSPEGGFDAILQAALCQEQIGWRNVSRLLVFTSDDTFHTAGDGKLGGIFMPSDGRCHLDSNGVYTNSAEFDYPSVGQVAQALTAANIQPIFAVTGATLPVYQELRQLIPKSAVGELSEDSSNVVQLIMDAYDSLSSTVTLEHSPLPPGVSISFESHCKGPEKTEGEAGDRGQCNDVRVNQTVDFWVTLQATHCLPEAHVLRLWALGFSEELTVELHTVCDCNCGDAQPHAPYCSDGQGDLQCGICSCAPGRLGQLCECSEADLSSPDLESGCRAPNGTGPLCSGKGRCQCGRCSCSGQSSGRLCECDDASCERHEGILCGGFGHCQCGVCHCHANHTGRACECSKSVDSCVSPEGGLCSGHGYCKCNRCQCLDGYYGALCDQCLGCKSPCEQYRDCAECGAFGTGPLAANCSVVCADVNVTLTLAPNLDDGWCKERTIDNQLFFFLVEHAASGIVLRVRPQEKGVDHTRAIILGCTGGIVAVGLGLVLAYRLSVEIYDRREYRRFEKEQQQLNWKQDNNPLYKSAITTTVNPRFQGTNGRSPSLSLTREAD"}}, "key": {"[1]": {"test_system": "adhesion of Mn++-activated TK-1 cells (α4+ β7+ β1−) to VCAM-1", "test": "Cell adhesion assay: Mn2+-activated TK-1 cells to VCAM-1-Fc coated wells", "format": "cell-based, mouse", "conditions": "for maximal inhibition of adhesion to VCAM-1 / inhibition of cell adhesion to VCAM-1: Mn++-activated TK-1 cells; for inhibition of cell adhesion to VCAM-1: highest concentration tested, 50 μM", "method": "The soluble VCAM-1-Fc chimera was produced using the glutamine synthetase gene amplification system. The extracellular portions of human VCAM-1 fused to the Fc domain of human IgG1 was expressed from the pEE14 vector (kindly provided by Dr Chris Bebbington, Celltech Ltd, UK) in CHO K1 cells as described previously (27).\n(§1) Lab-Tek 16-well glass slides (Nunc) or flat-bottom 96-well plates (Nunc Maxisorp) were coated overnight at 4° C. with purified VCAM-1-Fc at 10 μg/well in 100 μl of 0.1 M carbonate buffer (pH 9.5). After washing plates were blocked with 100% heat-inactivated FCS, and washed with Hanks balanced salt solution (HBSS) containing 10 mM Hepes, 2 mM Ca^2+ and 2 mM Mn^2+. TK-1 cells were either left unlabeled or labeled with the fluorescent dye chloromethyl fluorescein diacetate (CMFDA; Molecular Probes, Oreg.). For peptide inhibition studies, TK-1 cells were preincubated with peptide in serum-free medium for 30 min at 37° C. and activated by suspension in an Mn^2+-containing buffer (HBSS: 10 mM Hepes containing 2 mM Ca^2+, 2 mM Mn^2+, and 2% FCS). Human IgG1 Ab (10 μg/ml; Sigma) was added to prevent nonspecific capture of cells to the Fc portion of […]. Cells were checked for viability by trypan blue exclusion, added to wells (10^6 cells/well), and incubated for 30 min at 37° C. in a humidified atmosphere of 5% CO2. Non-adherent cells were removed by inverse centrifugation of the plates at 70×g for 5 min followed by gentle pipette washing. The number of unlabeled adherent cells was determined by counting the number of adherent cells in four independent fields at 100× magnification under an inverted microscope. The fluorescence of CMFDA-labeled adherent cells was measured using a VICTOR 1420 multilabel counter (Wallac). Representative data are reported as mean±SD of two independent experiments performed in duplicate. Antibodies against the integrin β7 subunit (Fib504 mAb), and α4β7 complex (DATK32 mAb) were included as positive controls, and added (1:100 dilution of ascites) to cells 20 min prior to the adhesion assay."}, "[2]": {"test_system": "adhesion of TK-1 (α4β7+ α4β1−) cells to MAdCAM-1", "test": "Cell adhesion assay: TK-1 cells to MAdCAM-1-Fc coated plates", "format": "cell-based, mouse", "conditions": "PMA-activated TK-1 cells, peptide up to 50 μM"}, "[3]": {"test_system": "TK-1 cells", "test": "Cell viability of peptide-treated TK-1 cells (trypan blue exclusion)", "format": "cell-based, mouse", "conditions": "data not shown", "method": "as §1, with “Non-adherent cells were removed by inverse centrifugation of the plates at 70×g for 5 min followed by gentle pipette washing.” left out, “Representative data are reported as mean±SD of two independent experiments performed in duplicate. Antibodies against the integrin β7 subunit (Fib504 mAb), and α4β7 complex (DATK32 mAb) were included as positive controls, and added (1:100 dilution of ascites) to cells 20 min prior to the adhesion assay.” left out"}, "[4]": {"biological_target": "T1, soluble VCAM-1-Fc chimera (extracellular portions of human VCAM-1 fused to the Fc domain of human IgG1) (human, UniProt P19320 25-698)", "T1 sequence (looked up)": "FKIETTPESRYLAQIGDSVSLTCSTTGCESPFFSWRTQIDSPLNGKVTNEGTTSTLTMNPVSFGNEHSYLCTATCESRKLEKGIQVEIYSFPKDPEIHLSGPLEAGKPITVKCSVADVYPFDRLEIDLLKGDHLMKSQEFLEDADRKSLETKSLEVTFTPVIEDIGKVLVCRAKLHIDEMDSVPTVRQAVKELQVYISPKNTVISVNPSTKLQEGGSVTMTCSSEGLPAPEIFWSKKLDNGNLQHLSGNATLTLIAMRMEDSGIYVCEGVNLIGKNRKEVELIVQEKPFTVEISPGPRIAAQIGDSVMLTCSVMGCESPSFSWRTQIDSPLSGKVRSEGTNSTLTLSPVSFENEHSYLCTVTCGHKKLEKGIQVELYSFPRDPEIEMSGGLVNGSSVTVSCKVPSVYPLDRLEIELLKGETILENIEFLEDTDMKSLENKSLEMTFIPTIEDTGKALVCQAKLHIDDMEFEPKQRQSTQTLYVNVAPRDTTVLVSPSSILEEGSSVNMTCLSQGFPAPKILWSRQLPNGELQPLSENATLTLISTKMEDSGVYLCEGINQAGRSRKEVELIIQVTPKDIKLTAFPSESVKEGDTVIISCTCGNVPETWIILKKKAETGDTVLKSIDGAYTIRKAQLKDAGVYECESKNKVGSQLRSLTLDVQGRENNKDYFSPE", "test": "cell-based or functional assay"}}, "note": "Ends that are not written are not given here."}
{"molecule": "CC[C@H](C)[C@H](NC(=O)[C@H](Cc1ccc(O)cc1)NC(=O)[C@H](CO)NC(=O)[C@H](Cc1c[nH]c2ccccc12)NC(=O)[C@H](CO)NC(=O)[C@H](CC(=O)O)NC(=O)[C@H](CCCCN)NC(=O)[C@H](CCCCN)NC(=O)[C@H](Cc1c[nH]c2ccccc12)NC(=O)[C@H](CCCCN)NC(=O)[C@H](CCSC)NC(=O)[C@H](CCCNC(=N)N)NC(=O)[C@H](CCCNC(=N)N)NC(=O)[C@H](CC(N)=O)NC(=O)[C@H](CCC(N)=O)NC(=O)[C@H](Cc1ccccc1)NC(=O)[C@H](Cc1c[nH]c2ccccc12)NC(=O)[C@@H](NC(=O)[C@H](CCCCN)NC(=O)[C@@H](NC(=O)[C@H](CCC(N)=O)NC(=O)[C@@H](N)CCCNC(=N)N)[C@@H](C)CC)[C@@H](C)CC)C(=O)N[C@@H](CC(N)=O)C(=O)N[C@@H](CO)C(=O)N[C@@H](CCCCN)C(=O)N[C@@H](CO)C(=O)N[C@@H](CC(N)=O)C(=O)N[C@@H](CC(=O)O)C(=O)N[C@@H](CC(=O)O)C(=O)O", "note": "[Pen-DSWSYINSKSNDD, DSWSYINSKSNDD]", "values": [{"measurement": "inhibition of T cell adhesion to VCAM-1 (in words)", "setting": "[1]; Mn2+-activated TK-1 cells, FIG. 2A", "result": "active"}, {"measurement": "maximal inhibition of adhesion to VCAM-1", "setting": "[1]; at 30 μM", "result": 72, "unit": "%"}]}
{"molecule": "DSWS", "values": [{"measurement": "inhibition of PMA-induced T cell adhesion to MAdCAM-1 (in words)", "setting": "[2]", "result": "inactive"}]}
{"molecule": "DSWSY [r9-DSWSY]", "values": [{"measurement": "inhibition of cell adhesion to VCAM-1", "setting": "[1]", "result": 75, "unit": "%"}]}
{"molecule": "DSWSYINS (not fully specified (N-terminus); also: N-terminal carrier biotinylated penetratin or r9, not given here for this peptide; listed as Homo sapiens) [r9-DSWSYINS]", "values": [{"measurement": "maximal inhibition of adhesion to VCAM-1", "setting": "[1]; at 6 μM peptide", "result": "~67", "unit": "%"}, {"measurement": "cells killed", "setting": "[3]; 50 μM peptide", "result": 15, "unit": "%"}]}
{"molecule": "KSNDD ({biotinylated r9}-KSNDD; listed as Homo sapiens) [r9-KSNDD]", "values": [{"measurement": "inhibition of cell adhesion to VCAM-1", "setting": "[1]", "result": 27, "unit": "%"}]}
{"molecule": "QYKSILQEENRRD [Pen-QYKSILQEENRRD]", "values": [{"measurement": "inhibition of cell adhesion to VCAM-1", "setting": "[1]", "result": 14, "unit": "%"}]}
{"molecule": "SWSY (listed as Homo sapiens)", "values": [{"measurement": "inhibition of PMA-induced T cell adhesion to MAdCAM-1 (in words)", "setting": "[2]", "result": "retained the ability of the parent peptide DSWSY to inhibit T cell adhesion"}]}
{"molecule": "YINSK ({biotinylated r9}-YINSK; listed as Homo sapiens) [r9-YINSK]", "values": [{"measurement": "inhibition of cell adhesion to VCAM-1", "setting": "[1]", "result": 80, "unit": "%"}]}
{"molecule": "YINSKSNDD (not fully specified (N-terminus); also: N-terminal carrier biotinylated penetratin or r9, not given here for this peptide; listed as Homo sapiens) [r9-YINSKSNDD]", "values": [{"measurement": "maximal inhibition of adhesion to VCAM-1", "setting": "[1]; at 6 μM peptide", "result": "~67", "unit": "%"}, {"measurement": "effect on cell viability (in words)", "setting": "[3]", "result": "no effect"}]}
{"molecule": "B1", "values": [{"measurement": "IC50 of the cell-permeable peptide Pen-… for inhibition of adhesion of Mn++-activated TK-1 cells to VCAM-1", "setting": "[4]", "result": 20, "unit": "µM"}]}
